Source: ChEMBL document CHEMBL3351369, “Phenylpropanoid acid esters from Korean propolis and their antioxidant activities” (Bioorg Med Chem Lett, 2014)

Tests used:
[1] = Antioxidant activity assessed as ABTS radical scavenging activity up to 1 mM after 12 hrs by spectrophotometry; type: physicochemical
[2] = Antioxidant activity assessed as DPPH radical scavenging activity up to 1 mM after 30 mins by spectrophotometry; type: physicochemical; settings: 0.5 h
[3] = Ratio of compound IC50 to trolox IC50 for ABTS radical scavenging activity after 12 hrs by spectrophotometry
[4] = Ratio of compound IC50 to trolox IC50 for DPPH radical scavenging activity after 30 mins by spectrophotometry
[5] = Antioxidant activity assessed as ABTS radical scavenging activity after 12 hrs by spectrophotometry; type: physicochemical
[6] = Antioxidant activity assessed as DPPH radical scavenging activity after 30 mins by spectrophotometry; type: physicochemical; settings: 0.5 h
[7] = Antioxidant activity assessed as hydroxyl radical scavenging activity at 50 uM after 30 mins by Fenton reaction-induced DNA single strand breakage method; type: physicochemical; settings: 0.5 h

| Activity [1] | Activity [2] | Activity [5] | Activity [6] | Activity [7] | Structure (SMILES) | Ratio IC50 [3] | Ratio IC50 [4] |
| --- | --- | --- | --- | --- | --- | --- | --- |
| Not Active | Not Active |  |  |  | O=C(/C=C/c1ccc(O)cc1)OCc1ccccc1 | > 500 | > 500 |
| Not Active | Not Active |  |  |  | O=C(/C=C/c1ccccc1)OC/C=C/c1ccccc1 | > 500 | > 500 |
|  |  | Dose-dependent effect | Dose-dependent effect | Not Active | COc1cc(/C=C/C(=O)OCC=C(C)C)ccc1O | 23.1 | 105 |
| Not Active | Not Active |  |  |  | O=C(/C=C/c1ccc(O)cc1)OC/C=C/c1ccccc1 | > 500 | > 500 |
|  |  |  |  |  | COc1ccc(/C=C/C(=O)OC/C=C/c2ccccc2)cc1OC | > 500 | > 500 |
|  |  |  |  |  | Cc1c(C)c2c(c(C)c1O)CCC(C)(C(=O)O)O2 (stereo not given) | 1 | 1 |
|  |  | Dose-dependent effect | Dose-dependent effect | Active | O=C(/C=C/c1ccc(O)c(O)c1)OCc1ccccc1 [BENZYL CAFFEATE] | 3.42 | 3.86 |
|  |  | Dose-dependent effect | Dose-dependent effect | Not Active | COc1cc(/C=C/C(=O)OCc2ccccc2)ccc1O [BENZYL FERULATE] | 24.8 | 92.1 |
|  |  | Dose-dependent effect | Dose-dependent effect | Active | O=C(/C=C/c1ccc(O)c(O)c1)OCCc1ccccc1 [CAFFEIC ACID PHENETHYL ESTER] | 6.3 | 0.46 |
|  |  | Dose-dependent effect | Dose-dependent effect | Active | CCOC(=O)/C=C/c1ccc(O)c(O)c1 [ETHYL CAFFEATE] | 10.6 | 6.3 |
| Not Active | Not Active |  |  |  | O=C(/C=C/c1ccccc1)OCCc1ccccc1 [PHENETHYL CINNAMATE] | > 500 | > 500 |
